Calls of active or inactive are those of the source. The rule behind the calls is not given here.
Experiments:
Androgen receptor [1] = target: T1, Androgen receptor (Homo sapiens, UniProt P10275)
T1 sequence (P10275 whole entry): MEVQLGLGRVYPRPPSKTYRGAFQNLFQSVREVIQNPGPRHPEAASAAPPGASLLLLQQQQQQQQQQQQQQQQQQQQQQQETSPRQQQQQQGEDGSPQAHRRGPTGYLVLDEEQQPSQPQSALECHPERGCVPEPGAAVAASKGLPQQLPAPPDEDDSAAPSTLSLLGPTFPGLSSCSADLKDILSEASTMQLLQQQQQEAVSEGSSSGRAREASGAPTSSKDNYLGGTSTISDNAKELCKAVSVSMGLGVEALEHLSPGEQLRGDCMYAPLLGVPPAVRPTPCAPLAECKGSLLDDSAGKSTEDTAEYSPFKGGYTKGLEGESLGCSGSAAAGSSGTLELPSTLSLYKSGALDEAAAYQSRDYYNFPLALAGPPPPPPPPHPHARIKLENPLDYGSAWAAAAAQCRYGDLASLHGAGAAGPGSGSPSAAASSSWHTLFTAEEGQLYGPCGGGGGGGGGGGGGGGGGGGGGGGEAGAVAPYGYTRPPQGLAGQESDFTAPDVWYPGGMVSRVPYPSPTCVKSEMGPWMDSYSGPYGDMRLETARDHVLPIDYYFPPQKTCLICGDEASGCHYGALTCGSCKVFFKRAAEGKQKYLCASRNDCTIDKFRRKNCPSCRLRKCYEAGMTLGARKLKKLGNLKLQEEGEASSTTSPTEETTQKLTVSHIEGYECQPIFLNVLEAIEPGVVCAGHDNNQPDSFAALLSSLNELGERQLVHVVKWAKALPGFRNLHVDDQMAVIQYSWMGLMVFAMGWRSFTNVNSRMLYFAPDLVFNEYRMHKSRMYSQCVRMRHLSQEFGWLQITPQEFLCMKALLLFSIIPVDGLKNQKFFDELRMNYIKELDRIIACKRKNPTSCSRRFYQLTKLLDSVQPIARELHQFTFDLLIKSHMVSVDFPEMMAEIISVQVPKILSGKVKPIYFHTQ
Description: Agonist activity at human androgen receptor expressed in CV1 cells by transcriptional activation assay

Androgen receptor [2] = target: T1, Androgen receptor; remark: listed apart in the source
Description: Antagonist activity at human androgen receptor expressed in CV1 cells by transcriptional activation assay

[3] = target: T2, Progesterone receptor (Homo sapiens) (UniProt P06401); experiment: Antagonist activity at progesterone receptor by transactivation assay; format: functional
T2 sequence (whole entry): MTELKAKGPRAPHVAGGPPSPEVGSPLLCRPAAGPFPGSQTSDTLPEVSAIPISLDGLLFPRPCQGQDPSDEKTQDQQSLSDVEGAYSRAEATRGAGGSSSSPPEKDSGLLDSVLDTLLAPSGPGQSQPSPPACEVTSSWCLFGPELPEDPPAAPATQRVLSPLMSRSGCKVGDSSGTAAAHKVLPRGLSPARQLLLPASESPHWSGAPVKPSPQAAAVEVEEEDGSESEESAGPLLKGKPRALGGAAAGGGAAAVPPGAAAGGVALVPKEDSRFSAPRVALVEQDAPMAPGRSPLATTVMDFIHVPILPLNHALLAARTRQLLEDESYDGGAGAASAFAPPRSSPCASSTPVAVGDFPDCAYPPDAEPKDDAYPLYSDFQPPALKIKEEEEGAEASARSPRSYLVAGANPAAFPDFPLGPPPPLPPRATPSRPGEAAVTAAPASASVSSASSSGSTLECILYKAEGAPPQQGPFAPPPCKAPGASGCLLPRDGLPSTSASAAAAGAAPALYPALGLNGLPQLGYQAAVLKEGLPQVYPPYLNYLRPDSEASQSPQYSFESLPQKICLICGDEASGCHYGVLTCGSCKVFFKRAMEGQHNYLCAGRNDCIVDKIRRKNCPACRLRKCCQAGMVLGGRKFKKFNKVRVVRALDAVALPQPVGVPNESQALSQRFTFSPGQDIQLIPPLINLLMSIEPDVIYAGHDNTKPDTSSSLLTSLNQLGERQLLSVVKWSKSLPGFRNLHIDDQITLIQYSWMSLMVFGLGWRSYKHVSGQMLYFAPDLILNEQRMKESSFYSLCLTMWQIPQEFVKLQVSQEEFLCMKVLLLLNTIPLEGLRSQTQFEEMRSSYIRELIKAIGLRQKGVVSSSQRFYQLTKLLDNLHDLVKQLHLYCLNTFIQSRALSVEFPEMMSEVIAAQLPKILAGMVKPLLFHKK

[4] = target: T3, Glucocorticoid receptor (Homo sapiens) (UniProt P04150); experiment: (§1) Antagonist activity at glucocorticoid receptor by transactivation assay; format: functional
T3 sequence (whole entry): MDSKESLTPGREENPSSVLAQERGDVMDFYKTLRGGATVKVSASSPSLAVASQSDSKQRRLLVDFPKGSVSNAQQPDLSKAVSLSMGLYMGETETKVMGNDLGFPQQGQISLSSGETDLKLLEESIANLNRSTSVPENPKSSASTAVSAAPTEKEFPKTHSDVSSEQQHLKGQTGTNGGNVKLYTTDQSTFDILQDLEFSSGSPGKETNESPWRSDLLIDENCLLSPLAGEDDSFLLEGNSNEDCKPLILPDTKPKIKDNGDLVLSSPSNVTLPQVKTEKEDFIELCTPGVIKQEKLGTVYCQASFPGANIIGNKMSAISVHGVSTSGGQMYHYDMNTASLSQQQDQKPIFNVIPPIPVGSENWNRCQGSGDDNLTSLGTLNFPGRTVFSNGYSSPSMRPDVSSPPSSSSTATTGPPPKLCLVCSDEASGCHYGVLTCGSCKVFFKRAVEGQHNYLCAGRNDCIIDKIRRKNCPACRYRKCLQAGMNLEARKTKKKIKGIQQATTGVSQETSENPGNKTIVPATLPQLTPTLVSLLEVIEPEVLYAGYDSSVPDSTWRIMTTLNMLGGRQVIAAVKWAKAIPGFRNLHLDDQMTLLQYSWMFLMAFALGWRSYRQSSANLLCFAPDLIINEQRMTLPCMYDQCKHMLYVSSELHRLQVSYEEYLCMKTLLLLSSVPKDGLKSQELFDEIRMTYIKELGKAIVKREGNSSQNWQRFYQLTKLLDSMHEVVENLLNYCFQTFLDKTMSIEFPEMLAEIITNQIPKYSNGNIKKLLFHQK

[5] = target: T4, Mineralocorticoid receptor (Homo sapiens) (UniProt P08235); experiment: Antagonist activity at mineralocorticoid receptor by transactivation assay; format: functional
T4 sequence (whole entry): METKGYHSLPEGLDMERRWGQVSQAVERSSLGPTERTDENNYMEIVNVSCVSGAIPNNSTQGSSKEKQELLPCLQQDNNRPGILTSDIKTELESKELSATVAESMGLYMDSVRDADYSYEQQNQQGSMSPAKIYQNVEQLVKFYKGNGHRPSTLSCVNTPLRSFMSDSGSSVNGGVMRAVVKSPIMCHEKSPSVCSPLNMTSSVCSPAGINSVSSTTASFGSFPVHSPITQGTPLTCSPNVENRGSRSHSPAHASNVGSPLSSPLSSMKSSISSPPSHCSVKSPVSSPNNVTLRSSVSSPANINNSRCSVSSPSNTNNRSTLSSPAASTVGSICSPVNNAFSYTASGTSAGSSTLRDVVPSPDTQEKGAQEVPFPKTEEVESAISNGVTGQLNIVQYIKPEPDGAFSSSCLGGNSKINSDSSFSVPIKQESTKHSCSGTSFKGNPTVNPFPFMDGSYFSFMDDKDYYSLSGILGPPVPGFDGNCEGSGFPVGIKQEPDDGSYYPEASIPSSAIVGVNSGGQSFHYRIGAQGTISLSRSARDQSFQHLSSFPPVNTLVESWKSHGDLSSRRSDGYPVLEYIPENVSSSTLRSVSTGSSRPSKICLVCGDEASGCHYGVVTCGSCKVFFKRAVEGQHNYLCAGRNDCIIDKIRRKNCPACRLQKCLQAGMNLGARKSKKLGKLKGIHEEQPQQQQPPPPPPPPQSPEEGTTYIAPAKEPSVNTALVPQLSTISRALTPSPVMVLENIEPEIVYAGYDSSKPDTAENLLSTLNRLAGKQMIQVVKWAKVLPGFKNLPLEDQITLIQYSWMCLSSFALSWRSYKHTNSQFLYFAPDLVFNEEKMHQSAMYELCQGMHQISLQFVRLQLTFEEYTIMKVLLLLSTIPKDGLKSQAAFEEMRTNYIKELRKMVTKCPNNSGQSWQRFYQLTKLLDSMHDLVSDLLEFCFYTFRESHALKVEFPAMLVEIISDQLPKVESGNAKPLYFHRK

[6] = target: T2, Progesterone receptor (Homo sapiens); experiment: Agonist activity at progesterone receptor by transactivation assay; format: functional
[7] = target: T3, Glucocorticoid receptor (Homo sapiens); experiment: Agonist activity at glucocorticoid receptor by transactivation assay; format: functional
[8] = target: T4, Mineralocorticoid receptor (Homo sapiens); experiment: Agonist activity at mineralocorticoid receptor by transactivation assay; format: functional
Rattus norvegicus [9] = experiment: Effect on levator ani muscle weight maintenance in 2-week castrated mature rat model at 10 mg/kg; format: functional, organism-based; parameters: dose 10 mg/kg
Rattus norvegicus [10] = experiment: Reduced activity on ventral prostate weight in 2-week castrated mature rat model at 100 mg/kg; format: functional, organism-based; parameters: dose 100 mg/kg; settings: Prostate gland
Glucocorticoid receptor = target: T5, Glucocorticoid receptor (Homo sapiens, UniProt P04150); experiment: as §1; format: functional
T5 sequence (P04150 whole entry): T3 sequence (whole entry)

Row | Compound | EC50 (Androgen receptor [1]) [nM] | IC50 (Androgen receptor [2]) [nM] | other results
1 | O=c1cc(C(F)(F)F)c2c3c(ccc2[nH]1)N(CC1CC1)C(c1ccccc1)CO3 (stereo not given) | 3.5 | > 10000 | –
2 | O=c1cc(C(F)(F)F)c2c3c(ccc2[nH]1)NCCO3 | > 10000 | 1500 | –
3 | O=c1cc(C(F)(F)F)c2c3c(ccc2[nH]1)N[C@H](c1ccccc1)CO3 | > 10000 | 1480 | –
4 | CC(C)[C@@H]1COc2c(ccc3[nH]c(=O)cc(C(F)(F)F)c23)N1CC(F)(F)F | 20 | > 10000 | –
5 | CC[C@@H]1COc2c(ccc3[nH]c(=O)cc(C(F)(F)F)c23)N1CC(F)(F)F | 1 | > 10000 | Efficacy [3]: 94%; Efficacy [4]: 98%; Activity [5]: inactive; Activity [6]: inactive; Activity [7]: inactive; Activity [8]: inactive; Activity (Rattus norvegicus [9]): Active; Activity (Rattus norvegicus [10]): Active
6 | C[C@@H]1COc2c(ccc3[nH]c(=O)cc(C(F)(F)F)c23)N1C | > 10000 | – | –
7 | O=c1cc(C(F)(F)F)c2c3c(ccc2[nH]1)N(CC1CC1)[C@@H](c1ccccc1)CO3 | 18 | > 10000 | –
8 | C[C@@H]1COc2c(ccc3[nH]c(=O)cc(C(F)(F)F)c23)N1CC(F)(F)F | 5.4 | > 10000 | Efficacy [3]: 40%; Efficacy [4]: 53%; IC50 (Glucocorticoid receptor): 3200 nM; Activity [5]: inactive; Activity [6]: inactive; Activity [7]: inactive; Activity [8]: inactive
9 | CC[C@@H]1COc2c(ccc3[nH]c(=O)cc(C(F)(F)F)c23)N1CC | – | > 10000 | –
10 | CCCN1c2ccc3[nH]c(=O)cc(C(F)(F)F)c3c2OC[C@H]1C | 406 | – | –
11 | CC[C@@H]1COc2c(ccc3[nH]c(=O)cc(C(F)(F)F)c23)N1CC(C)(C)O | 300 | > 10000 | –
12 | C=CCN1c2ccc3[nH]c(=O)cc(C(F)(F)F)c3c2OC[C@H]1C(C)C | – | > 10000 | –
13 | C=CCN1c2ccc3[nH]c(=O)cc(C(F)(F)F)c3c2OC[C@H]1CC | 51 | > 10000 | –
14 | CC[C@@H]1COc2c(ccc3[nH]c(=O)cc(C(F)(F)F)c23)N1CC(C)C | 227 | > 10000 | –
15 | CCN1c2ccc3[nH]c(=O)cc(C(F)(F)F)c3c2OC[C@H]1C | 420 | – | –
16 | CC(C)C[C@@H]1COc2c(ccc3[nH]c(=O)cc(C(F)(F)F)c23)N1CC(F)(F)F | 98 | – | –
17 | O=c1cc(C(F)(F)F)c2c3c(ccc2[nH]1)N(CC1CC1)[C@H](c1ccccc1)CO3 | > 10000 | 45 | –
18 | CCC[C@@H]1COc2c(ccc3[nH]c(=O)cc(C(F)(F)F)c23)N1 | > 10000 | 113 | –
19 | CC[C@@H]1COc2c(ccc3[nH]c(=O)cc(C(F)(F)F)c23)N1 | > 10000 | 84 | Efficacy [3]: 42%; Activity [5]: inactive; Activity [6]: inactive; Activity [7]: inactive; Activity [8]: inactive
20 | CC(C)[C@@H]1COc2c(ccc3[nH]c(=O)cc(C(F)(F)F)c23)N1C | 276 | – | –
21 | O=c1cc(C(F)(F)F)c2c3c(ccc2[nH]1)N(CC(F)(F)F)[C@H](Cc1ccccc1)CO3 | 43 | > 10000 | –
22 | CCN1c2ccc3[nH]c(=O)cc(C(F)(F)F)c3c2OC[C@H]1C(C)C | – | > 10000 | –
23 | CCCN1c2ccc3[nH]c(=O)cc(C(F)(F)F)c3c2OC[C@H]1CC | 394 | > 10000 | –
24 | CC[C@@H]1COc2c(ccc3[nH]c(=O)cc(C(F)(F)F)c23)N1C | > 10000 | – | –
25 | O=c1cc(C(F)(F)F)c2c3c(ccc2[nH]1)N(CC(F)(F)F)CCO3 | 190 | – | –

Reference: ChEMBL document CHEMBL1139788, “Potent, nonsteroidal selective androgen receptor modulators (SARMs) based on 8H-[1,4]oxazino[2,3-f]quinolin-8-ones” (Bioorg Med Chem Lett, 2007)
